# Counter-ions that a name gives are not always drawn.
# Test system: BRCA-1 silenced HeLa cells (HeLa shBRCA1-GFP)
# Test: Proliferation assay in BRCA-1 silenced HeLa cells
# Format: cell-based
# Conditions: Homo sapiens; BRCA1 silenced HeLa cells, 168 hours; read-out: CC50 in the BRCA1 silenced HeLa cells
# Experimental: Proliferation Assay in BRCA-1 Silenced HeLa Cells
# Compounds of the present invention were also tested in an anti-proliferative assay in matched pair BRCA1 wt and BRCA1-(shRNA) HeLa cells.
# The assay is based on the ability of living cells to convert a redox dye (resazurin) into a fluorescent end product (resofurin). The amount of resofurin produced is directly proportional to the cell number.
# HeLa shBRCA1-GFP—These are HeLa cells transduced at an MOI of 100 with a Lentivirus containing a shRNA against BRCA-1 and an expression cassette for GFP. BRCA-1 silencing is more than 80% as assessed by Taqman analysis and the cells stably express GFP.
# HeLa THM-GFP—These are HeLa cells transduced at an MOI of 100 with a control vector not expressing any shRNA.
# • Seed 300 cell/well in 96 wells viewplate black in 90 ul culture Medium*: • Incubate 4 hours at 37° C., 5% CO2 • Add 10 ul/well of 10× compound (5% DMSO in H2O) • Incubate for 168 hours at 37° C., 5% CO2 • Add 10 ul of Celltiter Blue solution (Promega, G8081) pre-diluted 1:1 in PBS1× • Incubate the mixture for 45′ at 37° C., 5% CO2 • Incubate 15′ at RT in the dark • Read plate at fluorimeter ex: 550 nm; em: 590 nm *Culture Medium: DMEM (GIBCO, 41966-029), 10% FCS (GIBCO, 10106-169), 0.1 mg/ml Penicillin-Streptomycin (GIBCO, 15140-114), 2 mM L-Glutamine (GIBCO, 3042190)
row,Structure (SMILES),CC50
1,"Cc1c(Cc2ccc(F)c(C(=O)N3CC(=O)N(c4cccc(Cl)c4)[C@H](C)C3)c2)n[nH]c(=O)c1C [Example 178, 6-(3-{[(3R)-4-(3-Chlorophenyl)-3-methyl-5-oxopiperazin-1-yl]carbonyl}-4-fluorobenzyl)-4,5-dimethylpyridazin-3(2H)-one]",< 50 nM
2,"COc1cccc(N2CCN(C(=O)c3cc(Cc4n[nH]c(=O)c(C)c4C)ccc3F)CC2=O)c1 [Example 22, 6-(4-Fluoro-3-{[4-(3-methoxyphenyl)-3-oxopiperazin-1-yl]carbonyl}benzyl)-4,5-dimethylpyridazin-3(2H)-one trifluoroacetate]",50 to 500 nM
3,"CCc1cc(Cc2ccc(F)c(C(=O)N3CCN(c4ccccc4)C(=O)C3)c2)n[nH]c1=O [Example 5, 4-Ethyl-6-{4-fluoro-3-[(3-oxo-4-phenylpiperazin-1-yl)carbonyl]benzyl}pyridazin-3(2H)-one trifluoroacetate]",50 to 500 nM
4,"Cc1c(Cc2ccc(F)c(C(=O)N3CCN(C4Cc5ccccc5C4)C(=O)C3)c2)n[nH]c(=O)c1C [Example 71, 6-(3-{[4-(2,3-Dihydro-1H-inden-2-yl)-3-oxopiperazin-1-yl]carbonyl}-4-fluorobenzyl)-4,5-dimethyl-3-oxo-2,3-dihydropyridazin-1-ium trifluoroacetate]",50 to 500 nM
5,"Cc1c(Cc2ccc(F)c(C(=O)N3CCN([C@@H](C)C(F)(F)F)C(=O)C3)c2)n[nH]c(=O)c1C [Example 192, 6-[4-Fluoro-3-({3-oxo-4-[(1S)-2,2,2-trifluoro-1-methylethyl]piperazin-1-yl}carbonyl)benzyl]-4,5-dimethylpyridazin-3(2H)-one]",50 to 500 nM
6,"Cc1c(Cc2ccc(F)c(C(=O)N3CCN(C(c4ccc(F)cc4)C(F)F)C(=O)C3)c2)n[nH]c(=O)c1C (stereo not drawn) [Example 118, 6-[3-({4-[2,2-difluoro-1-(4-fluorophenyl)ethyl]-3-oxopiperazin-1-yl}carbonyl)-4-fluorobenzyl]-4,5-dimethyl-3-oxo-2,3-dihydropyridazin-1-ium trifluoroacetate]",50 to 500 nM
7,"Cc1c(Cc2ccc(F)c(C(=O)N3CCN(C4COc5ccccc5C4)C(=O)C3)c2)n[nH]c(=O)c1C (stereo not drawn) [Example 98, 6-(3-{[4-(3,4-dihydro-2H-chromen-3-yl)-3-oxopiperazin-1-yl]carbonyl}-4-fluorobenzyl)-4,5-dimethyl-3-oxo-2,3-dihydropyridazin-1-ium trifluoroacetate]",< 50 nM
8,"Cc1c(Cc2ccc(F)c(C(=O)N3CCN(C4CCc5ccccc5C4)C(=O)C3)c2)n[nH]c(=O)c1C (stereo not drawn) [Example 70, 6-(4-Fluoro-3-{[3-oxo-4-(1,2,3,4-tetrahydronaphthalen-2-yl)piperazin-1-yl]carbonyl}benzyl)-4,5-dimethyl-3-oxo-2,3-dihydropyridazin-1-ium trifluoroacetate]",< 50 nM
9,"CCc1cc(Cc2ccc(F)c(C(=O)N3CCN(C4CCCCC4)C(=O)C3)c2)n[nH]c1=O [Example 6, 6-{3-[(4-Cyclohexyl-3-oxopiperazin-1-yl)carbonyl]-4-fluorobenzyl}-4-ethylpyridazin-3(2H)-one trifluoroacetate]",50 to 500 nM
10,"Cc1c(Cc2ccc(F)c(C(=O)N3CCN(C4CCCCC4)C(=O)C3)c2)n[nH]c(=O)c1C(F)(F)F [Example 25, 3-{3-[(4-Cyclohexyl-3-oxopiperazin-1-yl)carbonyl]-4-fluorobenzyl}-4-methyl-6-oxo-5-(trifluoromethyl)-1,6-dihydropyridazin-1-ium trifluoroacetate]",< 50 nM
11,"Cc1c(Cc2ccc(F)c(C(=O)N3CCN([C@H](C)c4ccccc4)C(=O)C3)c2)n[nH]c(=O)c1C [Example 121, 6-[4-fluoro-3-({3-oxo-4-[(1R)-1-phenylethyl]piperazin-1-yl}carbonyl)benzyl]-4,5-dimethyl-3-oxo-2,3-dihydropyridazin-1-ium trifluoroacetate]",50 to 500 nM
12,"CCN1C(=O)CN(C(=O)c2cc(Cc3n[nH]c(=O)c(C(F)(F)F)c3C)ccc2F)C[C@@H]1C [Example 155, 6-(3-{[(3S)-4-ethyl-3-methyl-5-oxopiperazin-1-yl]carbonyl}-4-fluorobenzyl)-5-methyl-4-(trifluoromethyl)pyridazin-3(2H)-one]",< 50 nM
13,"Cc1c(Cc2ccc(F)c(C(=O)N3CC(=O)N(C4CCOC4)C(C)C3)c2)n[nH]c(=O)c1C (stereo not drawn) [Example 130, 6-(4-Fluoro-3-{[3-methyl-5-oxo-4-(tetrahydrofuran-3-yl)piperazin-1-yl]carbonyl}benzyl)-4,5-dimethylpyridazin-3(2H)-one trifluoroacetate]",50 to 500 nM
14,"Cc1c(Cc2ccc(F)c(C(=O)N3CC(=O)N(C4CC(F)(F)C4)[C@@H](C)C3)c2)n[nH]c(=O)c1C [Example 209, 6-(3-{[(3S)-4-(3,3-Difluorocyclobutyl)-3-methyl-5-oxopiperazin-1-yl]carbonyl}-4-fluorobenzyl)-4,5-dimethylpyridazin-3(2H)-one]",< 50 nM
15,"CCC(CC)N1CCN(C(=O)c2cc(Cc3n[nH]c(=O)c(C)c3C)ccc2F)CC1=O [Example 167, 6-(3-{[4-(1-Ethylpropyl)-3-oxopiperazin-1-yl]carbonyl}-4-fluorobenzyl)-4,5-dimethylpyridazin-3(2H)-one]",< 50 nM
16,"COC[C@@H](C)N1CCN(C(=O)c2cc(Cc3n[nH]c(=O)c(C)c3C)ccc2F)CC1=O [Example 179, 6-[4-Fluoro-3-({4-[(1R)-2-methoxy-1-methylethyl]-3-oxopiperazin-1-yl}carbonyl)benzyl]-4,5-dimethylpyridazin-3(2H)-one]",< 5000 nM
17,"O=C(c1cc(Cc2cc(C(F)(F)F)c(=O)[nH]n2)ccc1F)N1CCN([C@@H]2CCCOC2)C(=O)C1 [Example 154, 6-[4-fluoro-3-({3-oxo-4-[(3R)-tetrahydro-2H-pyran-3-yl]piperazin-1-yl}carbonyl)benzyl]-4-(trifluoromethyl)pyridazin-3(2H)-one]",< 5000 nM
18,"Cc1c(Cc2ccc(F)c(C(=O)N3CC(=O)N(c4ccc(F)c(C#N)c4)[C@H](C)C3)c2)n[nH]c(=O)c1C [Example 197, 5-((2R)-4-{5-[(4,5-Dimethyl-6-oxo-1,6-dihydropyridazin-3-yl)methyl]-2-fluorobenzoyl}-2-methyl-6-oxopiperazin-1-yl)-2-fluorobenzonitrile]",< 50 nM
19,"Cc1c(Cc2ccc(F)c(C(=O)N3CC(=O)N4[C@@H](CCC[C@@H]4C)C3)c2)n[nH]c(=O)c1C (single isomer, unassigned) [86 (TT1)]",< 50 nM
20,"Cc1c(Cc2ccc(F)c(C(=O)N3CCN(C4(C)CCCCC4)C(=O)C3)c2)n[nH]c(=O)c1C [Example 110, 6-(4-fluoro-3-{[4-(1-methylcyclohexyl)-3-oxopiperazin-1-yl]carbonyl}benzyl)-4,5-dimethyl-3-oxo-2,3-dihydropyridazin-1-ium trifluoroacetate]",< 5000 nM
21,"CCCCN1CCN(C(=O)c2cc(Cc3n[nH]c(=O)c(C)c3C)ccc2F)CC1=O [Example 18, 6-{3-[(4-Butyl-3-oxopiperazin-1-yl)carbonyl]-4-fluorobenzyl}-4,5-dimethylpyridazin-3(2H)-one trifluoroacetate]",50 to 500 nM
22,"C[C@@H]1CCC[C@@H]2CN(C(=O)c3cc(Cc4cc(C(F)(F)F)c(=O)[nH]n4)ccc3F)CC(=O)N21 (single isomer, unassigned) [88 (VV2)]",50 to 500 nM
23,"Cc1c(Cc2ccc(F)c(C(=O)N3CC(=O)N(c4ccc(Cl)c(F)c4)[C@H](C)C3)c2)n[nH]c(=O)c1C [Example 187, 6-(3-{[(3R)-4-(4-Chloro-3-fluorophenyl)-3-methyl-5-oxopiperazin-1-yl]carbonyl}-4-fluorobenzyl)-4,5-dimethylpyridazin-3(2H)-one]",< 50 nM
24,"Cc1c(Cc2ccc(F)c(C(=O)N3CCN(CC(C)C(F)(F)F)C(=O)C3)c2)n[nH]c(=O)c1C (stereo not drawn) [Example 45, 6-(4-Fluoro-3-{[3-oxo-4-(3,3,3-trifluoro-2-methylpropyl)piperazin-1-yl]carbonyl}benzyl)-4,5-dimethyl-3-oxo-2,3-dihydropyridazin-1-ium trifluoroacetate]",< 5000 nM
25,"Cc1c(Cc2ccc(F)c(C(=O)N3CCN([C@H]4CCCOC4)C(=O)C3)c2)n[nH]c(=O)c1C [Example 103, 6-[4-fluoro-3-({3-oxo-4-[(3S)-tetrahydro-2H-pyran-3-yl]piperazin-1-yl}carbonyl)benzyl]-4,5-dimethylpyridazin-3(2H)-one]",50 to 500 nM
26,"Cc1c(Cc2ccc(F)c(C(=O)N3CC(=O)N4[C@@H](CCC[C@H]4C)C3)c2)n[nH]c(=O)c1C (racemic) [Example 85, 6-{4-Fluoro-3-[(cis-6-methyl-4-oxooctahydro-2H-pyrido[1,2-a]pyrazin-2-yl)carbonyl]benzyl}-4,5-dimethyl-3-oxo-2,3-dihydropyridazin-1-ium trifluoroacetate]",< 50 nM
27,"Cc1c(Cc2ccc(F)c(C(=O)N3CCN([C@@H](C)c4ccccc4)C(=O)C3)c2)n[nH]c(=O)c1C [Example 122, 6-[4-fluoro-3-({3-oxo-4-[(1S)-1-phenylethyl]piperazin-1-yl}carbonyl)benzyl]-4,5-dimethyl-3-oxo-2,3-dihydropyridazin-1-ium trifluoroacetate]",50 to 500 nM

# Source: patent US8268827B2, “Pyridazinone derivatives as PARP inhibitors” (Istituto di Ricerche di Biologia Molecolare P. Angeletti …, priority 2007, dated 2012)
